Data taken from patent US5420143A, “Piperidine derivatives for treating allergy” (Kowa Co., Ltd., priority 1993, dated 1995).
pKd: −log10 of the molar value.

Legend:
[1] = test system: ileum isolated from guinea pigs, contraction induced by histamine; assay: Inhibition of histamine-induced contraction of isolated guinea pig ileum (antihistamine activity); details: Average ± S.D.; histamine 1×10^-5 M; 30 minutes incubation with test compound; test compound concentration not given
Procedure: (§1) Antihistamine activity and antileukotriene activity:
(§2) The first three constant constractions induced by histamine (1×10^-5 M) or leukotriene D4 (1×10^-8 M) were used as the reference for the calculation of the inhibitory ratio. After repeated washings until contraction movement recurred, ileal strip was incubated with the test compound for 30 minutes. The contraction test was then conducted again using histamine or leukotriene D4. The inhibitory ratio (%) of the test compound on the ileum was calculated according to the following equation: [formula]

[2] = test system: ileum isolated from guinea pigs, contraction induced by leukotriene D4; assay: Inhibition of leukotriene D4 induced contraction of isolated guinea pig ileum (antileukotriene activity); details: Average ± S.D.; leukotriene D4 1×10^-8 M; 30 minutes incubation with test compound; test compound concentration not given
Procedure: as §1, §2

Leukotriene D4 receptors = target: T1, Leukotriene D4 receptors (Cavia porcellus, UniProt Q2NNR5); assay: Binding assay on Leukotriene D4 receptors (guinea-pig lung membrane protein, [^3 H]-leukotriene D4)
T1 construct: Preparation of guinea-pig lung membrane protein; from tissue; host or cells: guinea-pig lung membranes
T1 sequence (Q2NNR5 1-340): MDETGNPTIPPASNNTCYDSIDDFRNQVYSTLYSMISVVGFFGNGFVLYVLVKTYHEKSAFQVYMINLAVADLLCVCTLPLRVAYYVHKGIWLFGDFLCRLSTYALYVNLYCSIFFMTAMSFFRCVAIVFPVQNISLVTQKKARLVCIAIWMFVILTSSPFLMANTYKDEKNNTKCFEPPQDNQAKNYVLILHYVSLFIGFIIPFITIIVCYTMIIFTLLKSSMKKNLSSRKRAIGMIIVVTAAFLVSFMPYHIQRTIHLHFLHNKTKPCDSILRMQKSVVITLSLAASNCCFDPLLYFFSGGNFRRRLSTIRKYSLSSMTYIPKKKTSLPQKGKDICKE
Description: Binding assay on Leukotriene D4 receptors:
a) Preparation of guinea-pig lung membrane protein:

SMILES	Inhibition vs histamine-induced contraction (%) [1]	Inhibition vs leukotriene D4 induced contraction (%) [2]	antileukotriene activity (nature of the activity) (Leukotriene D4 receptors; binding assay on leukotriene D4 receptors)	pKd (Leukotriene D4 receptors; read-out: binding affinity on leukotriene D4 receptors (Kd))
O=c1cc(-c2nnn[nH]2)oc2cc(OCCCN3CCC(=C(c4ccccc4)c4ccccc4)CC3)ccc12 [Compound (1), 7-[3-(4-Diphenylmethylenepiperidin-1-yl)propyloxy]-2-(5-tetrazolyl)-4-oxo-4H-benzopyran]	52 ± 7%	15 ± 1%	antagonistic	5.63
CCCc1c(OCC(O)COc2ccc3c(=O)cc(C(=O)O)oc3c2CCC)ccc(C(C)=O)c1O (centres unmarked) [FPL-55712]	0%	11 ± 4%		
CC(C)(C)c1ccc(C(O)CCCN2CCC(C(O)(c3ccccc3)c3ccccc3)CC2)cc1 (centres unmarked) [Terfenadine]	5 ± 1%	0%		
